Columns and labels:
Mus musculus [1] = organism: Mus musculus; test: Inhibition of spontaneous activity in mice; assay type: functional
Mus musculus [2] = organism: Mus musculus; test: Inhibition of tail-flick response (antinociception) in mice; assay type: functional
Mus musculus [3] = organism: Mus musculus; test: Equilibrium dissociation constant (Kd) was determined
[4] = Binding affinity was evaluated towards nicotine receptor in mouse brain; assay type: tissue-based

| SMILES | ED50 (Mus musculus [1]) [µmol/kg] | ED50 (Mus musculus [2]) [µmol/kg] | Kd (Mus musculus [3]) [nM] | Ki [4] [nM] |
| --- | --- | --- | --- | --- |
| CN1CCC[C@H]1c1cccnc1 [NICOTINE] | 4.44 | 4.81 | 1.41 |  |
| c1cc2c(cn1)C1NCCC1CC2 (racemic) | 24.8 | 25.7 |  | 167 |
| CN1CCC2CCc3ccncc3C21 (single isomer, unassigned; (+)) | 7.13 | 7.45 |  |  |
| CN1CCC2CCc3ccncc3C21 (single isomer, unassigned; (-)) | 61.7 |  |  | 605 |
